This note sets out measurements from US12291518B2, “Thyroid hormone receptor agonists and use thereof” (Eccogene Inc., priority 2020, dated 2025).

The target in one experiment is T1, THR alpha-LBD (Homo sapiens, UniProt P10827).
T1 construct: except that THR alpha-LBD of a final concentration 0.25 nM was used; purchased Invitrogen PV4687
Description: THR-α Coactivator Peptide Recruitment Assay (LanthaScreen TR-FRET). The settings on record: TR-FRET coactivator recruitment, THR alpha-LBD 0.25 nM; for EC50: read-out: THRα EC50. In kind it is biochemical. The essentials:
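TR-FRET coactivator recruitment with THR alpha-LBD at 0.25 nM final, Fluorescein-SRC2-2 peptide 0.1 nM and Tb-labeled anti-GST antibody 2 nM; 2 h incubation at room temperature. 520/495 nm emission ratio fitted to a four-parameter sigmoidal curve to give EC50.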

For another experiment, the target named is T2, THR beta-LBD (Homo sapiens, UniProt P10828).
T2 construct: THR beta-LBD (the final concentration is 0.5 nM) was added to the 384-well assay plate; purchased Invitrogen PV4686
T2 sequence (P10828 217-461 limits assumed): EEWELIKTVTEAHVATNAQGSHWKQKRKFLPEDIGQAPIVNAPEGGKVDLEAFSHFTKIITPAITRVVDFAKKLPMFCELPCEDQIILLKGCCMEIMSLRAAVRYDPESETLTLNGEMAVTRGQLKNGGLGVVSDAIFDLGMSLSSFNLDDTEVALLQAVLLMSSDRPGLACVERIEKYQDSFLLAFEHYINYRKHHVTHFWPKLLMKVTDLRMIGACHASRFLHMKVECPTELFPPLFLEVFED
Description: THR-β Coactivator Peptide Recruitment Assay (LanthaScreen TR-FRET). The settings on record: TR-FRET coactivator recruitment, THR beta-LBD 0.5 nM; for EC50: read-out: THRβ EC50. It is filed as biochemical. The essentials:
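Agonist-driven coactivator recruitment read as a 520/495 nm TR-FRET emission ratio after 2 h at room temperature. Final concentrations: THR beta-LBD 0.5 nM, fluorescein-SRC2-2 peptide 0.1 nM, terbium anti-GST antibody 2 nM. EC50 from four-parameter dose-response fitting.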
(In general: Time-resolved FRET reads energy transfer from a long-lived donor to a nearby acceptor.)

T1 sequence (P10827 163-410 isoform P10827-2 limits assumed, other chains not shown): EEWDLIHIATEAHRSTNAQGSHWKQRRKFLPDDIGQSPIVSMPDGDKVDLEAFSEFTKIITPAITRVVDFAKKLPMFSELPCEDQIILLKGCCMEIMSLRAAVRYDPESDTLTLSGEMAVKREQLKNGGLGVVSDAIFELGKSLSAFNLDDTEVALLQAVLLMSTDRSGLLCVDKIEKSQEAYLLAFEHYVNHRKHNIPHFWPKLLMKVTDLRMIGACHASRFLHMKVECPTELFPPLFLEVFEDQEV

The term EC50 denotes the midpoint of the concentration-response curve. As to `C[C@]1(O)C[C@@H](NS(=O)(=O)c2cc(Oc3c(Cl)cc(-n4nc(C(F)F)c(=O)[nH]c4=O)cc3Cl)ncc2O)C1` [Compound 138, 2-(2,6-dichloro-4-(6-(difluoromethyl)-3,5-dioxo-4,5-dihydro-1,2,4-triazin-2(3H)-yl)phenoxy)-5-hydroxy-N-((1s,3s)-3-hydroxy-3-methylcyclobutyl)pyridine-4-sulfonamide], at THR alpha-LBD, the “THRα Emax” value is recorded as “C (<40)” and the EC50 is more than 1000 nM. Also, on THR beta-LBD, the “THRβ Emax” value is listed as “C (<75)” and the EC50 is more than 100 nM.
On the same counts, the results for `CS(=O)(=O)N1CC[C@@H](NS(=O)(=O)c2cc(Oc3c(Cl)cc(-n4nc(C(F)F)c(=O)[nH]c4=O)cc3Cl)ccc2O)C1` [Compound 51, (R)-5-(2,6-dichloro-4-(6-(difluoromethyl)-3,5-dioxo-4,5-dihydro-1,2,4-triazin-2(3H)-yl)phenoxy)-2-hydroxy-N-(1-(methylsulfonyl)pyrrolidin-3-yl)benzenesulfonamide] are “B (40~85)”, 200 to 1000 nM, “C (<75)” and 2 to 20 nM.
As to `O=c1[nH]c(=O)n(-c2cc(Cl)c(Oc3cc(S(=O)(=O)NC4COC4)c(O)cn3)c(Cl)c2)nc1C(F)F` [Compound 158, 2-(2,6-dichloro-4-(6-(difluoromethyl)-3,5-dioxo-4,5-dihydro-1,2,4-triazin-2(3H)-yl)phenoxy)-5-hydroxy-N-(oxetan-3-yl)pyridine-4-sulfonamide], at THR alpha-LBD, the “THRα Emax” value was “A (85~110)” and the EC50 was 2 to 200 nM. At THR beta-LBD, the “THRβ Emax” value was “A (90~110)” and the EC50 was less than 2 nM.
On the same counts, the results for `CS(=O)(=O)c1cc(Oc2c(Cl)cc(-n3nc(C(F)F)c(=O)[nH]c3=O)cc2Cl)ncc1O` [Compound 146, 2-[3,5-dichloro-4-[(5-hydroxy-4-methylsulfonyl-2-pyridyl)oxy]phenyl]-6-(difluoromethyl)-1,2,4-triazine-3,5-dione] are “A (85~110)”, 2 to 200 nM, “A (90~110)” and 2 to 20 nM.
In the same order, the values of `CO[C@H]1C[C@H](NS(=O)(=O)c2cc(Oc3c(Cl)cc(-n4nc(C(F)F)c(=O)[nH]c4=O)cc3Cl)ccc2O)C1` [Compound 36, 5-(2,6-dichloro-4-(6-(difluoromethyl)-3,5-dioxo-4,5-dihydro-1,2,4-triazin-2(3H)-yl)phenoxy)-2-hydroxy-N-((1r,3r)-3-methoxycyclobutyl)benzenesulfonamide] are “B (40~85)”, 2 to 200 nM, “B (75~90)” and 2 to 20 nM.
In the same order, the values of `CNS(=O)(=O)c1cc(Oc2c(Cl)cc(-n3nc(C(F)F)c(=O)[nH]c3=O)cc2Cl)ccc1O` [Compound 13, 5-(2,6-dichloro-4-(6-(difluoromethyl)-3,5-dioxo-4,5-dihydro-1,2,4-triazin-2(3H)-yl)phenoxy)-2-hydroxy-N-methylbenzenesulfonamide] are “A (85~110)”, less than 2 nM, “A (90~110)” and less than 2 nM.
As for `O=C(N[C@H]1C[C@H](O)C1)c1cc(Oc2c(Cl)cc(-n3nc(C(F)F)c(=O)[nH]c3=O)cc2Cl)ccc1O` [Compound 2, 5-(2,6-dichloro-4-(6-(difluoromethyl)-3,5-dioxo-4,5-dihydro-1,2,4-triazin-2(3H)-yl)phenoxy)-2-hydroxy-N-((1r,3r)-3-hydroxycyclobutyl)benzamide], at THR alpha-LBD, the “THRα Emax” value is listed as “B (40~85)” and the EC50 was 200 to 1000 nM. On THR beta-LBD, the “THRβ Emax” value was “B (75~90)” and the EC50 was 2 to 20 nM.
On the same counts, the results for `O=c1[nH]c(=O)n(-c2cc(Cl)c(Oc3cc(S(=O)(=O)NC4CCOCC4)c(O)cn3)c(Cl)c2)nc1C(F)F` [Compound 136, 2-(2,6-dichloro-4-(6-(difluoromethyl)-3,5-dioxo-4,5-dihydro-1,2,4-triazin-2(3H)-yl)phenoxy)-5-hydroxy-N-(tetrahydro-2H-pyran-4-yl)pyridine-4-sulfonamide] are “B (40~85)”, 2 to 200 nM, “B (75~90)” and 2 to 20 nM.
In the same order, the values of `O=C(NCC(F)F)C1(NS(=O)(=O)c2cc(Oc3c(Cl)cc(-n4nc(C(F)F)c(=O)[nH]c4=O)cc3Cl)ncc2O)CC1` [Compound 117, 1-((2-(2,6-dichloro-4-(6-(difluoromethyl)-3,5-dioxo-4,5-dihydro-1,2,4-triazin-2(3H)-yl)phenoxy)-5-hydroxypyridine)-4-sulfonamido)-N-(2,2-difluoroethyl)cyclopropane-1-carboxamide] are “C (<40)”, more than 1000 nM, “C (<75)” and 20 to 100 nM.
In the case of `CN1C[C@H](NS(=O)(=O)c2cc(Oc3c(Cl)cc(-n4nc(C(F)F)c(=O)[nH]c4=O)cc3Cl)ccc2O)CC1=O` (single isomer, unassigned) [Compound 35], on THR alpha-LBD, the “THRα Emax” value is “B (40~85)” and the EC50 was 200 to 1000 nM. On THR beta-LBD, the “THRβ Emax” value is given as “C (<75)” and the EC50 is 20 to 100 nM.
On the same counts, the results for `O=c1cnn(-c2cc(Cl)c(Oc3cc(S(=O)(=O)N[C@H]4C[C@H](O)C4)c(O)cn3)c(Cl)c2)c(=O)[nH]1` [Compound 165, 2-(2,6-dichloro-4-(3,5-dioxo-4,5-dihydro-1,2,4-triazin-2(3H)-yl)phenoxy)-5-hydroxy-N-((1r,3r)-3-hydroxycyclobutyl)pyridine-4-sulfonamide] are “B (40~85)”, more than 1000 nM, “C (<75)” and 20 to 100 nM.
On the same counts, the results for `O=c1[nH]c(=O)n(-c2cc(Cl)c(Oc3ccc(O)c(S(=O)(=O)N[C@H]4C[C@H](C(=O)NC5CC5)C4)c3)c(Cl)c2)nc1C(F)F` [Compound 18] are “B (40~85)”, 200 to 1000 nM, “B (75~90)” and 2 to 20 nM.
For `CC1(C)CC(NS(=O)(=O)c2cc(Oc3c(Cl)cc(-n4nc(C(F)F)c(=O)[nH]c4=O)cc3Cl)ncc2O)C1` [Compound 122], at THR alpha-LBD, the “THRα Emax” value was “B (40~85)” and the EC50 lay within 200 to 1000 nM. Also, at THR beta-LBD, the “THRβ Emax” value is “C (<75)” and the EC50 lay within 2 to 20 nM.
In the same order, the values of `O=c1[nH]c(=O)n(-c2cc(Cl)c(Oc3cc(S(=O)(=O)C4CCC4)c(O)cn3)c(Cl)c2)nc1C(F)F` [Compound 153, 2-[3,5-dichloro-4-[(4-cyclobutylsulfonyl-5-hydroxy-2-pyridyl)-oxy]phenyl]-6-(difluoromethyl)-1,2,4-triazine-3,5-dione] are “A (85~110)”, 2 to 200 nM, “A (90~110)” and less than 2 nM.
In the same order, the values of `CNS(=O)(=O)c1cc(Oc2c(Cl)cc(-n3nc(C(F)F)c(=O)[nH]c3=O)cc2Cl)ncc1OC` [Compound 127, 2-(2,6-dichloro-4-(6-(difluoromethyl)-3,5-dioxo-4,5-dihydro-1,2,4-triazin-2(3H)-yl)phenoxy)-5-methoxy-N-methylpyridine-4-sulfonamide] are “C (<40)”, 200 to 1000 nM, “C (<75)” and 20 to 100 nM.
In the same order, the values of `O=c1[nH]c(=O)n(-c2cc(Cl)c(Oc3ccc(O)c(S(=O)(=O)N4CCC(O)CC4)c3)c(Cl)c2)nc1C(F)F` [Compound 16, 2-(3,5-dichloro-4-(4-hydroxy-3-((4-hydroxypiperidin-1-yl)sulfonyl)phenoxy)phenyl)-6-(difluoromethyl)-1,2,4-triazine-3,5(2H,4H)-dione] are “A (85~110)”, 2 to 200 nM, “B (75~90)” and less than 2 nM.
For the compound `O=C(NC1CCCC1)C1(NS(=O)(=O)c2cc(Oc3c(Cl)cc(-n4nc(C(F)F)c(=O)[nH]c4=O)cc3Cl)ncc2O)CC1` [Compound 116, N-cyclopentyl-1-((2-(2,6-dichloro-4-(6-(difluoromethyl)-3,5-dioxo-4,5-dihydro-1,2,4-triazin-2(3H)-yl)phenoxy)-5-hydroxypyridine)-4-sulfonamido)cyclopropane-1-carboxamide], at THR alpha-LBD, the “THRα Emax” value is “B (40~85)” and the 50% effective concentration (EC50) is more than 1000 nM. Further, at THR beta-LBD, the “THRβ Emax” value is “C (<75)” and the EC50 is 20 to 100 nM.
On the same counts, the results for `O=C(NC1CCC1)c1cc(Oc2c(Cl)cc(-n3nc(C(F)F)c(=O)[nH]c3=O)cc2Cl)ncc1O` [Compound 145, N-cyclobutyl-2-[2,6-dichloro-4-[6-(difluoromethyl)-3,5-dioxo-1,2,4-triazin-2-yl]phenoxy]-5-hydroxy-pyridine-4-carboxamide] are “B (40~85)”, 2 to 200 nM, “B (75~90)” and 2 to 20 nM.
